Laboratory results from article PMC5400251, “Effect of quinoline based 1,2,3-triazole and its structural analogues on growth and virulence attributes of Candida albicans” (PLoS ONE, 2017).
≈ marks a conversion by molar mass, not a printed value.

Tests used:
[1] = tested on: C. albicans D39 (FLC-sensitive clinical isolate); assay: Broth dilution IC50 determination; type: cell-based; conditions: Candida albicans, 24 h; read-out: Anti-Candida Activity (IC50± S.D.) C. albicans D39
Experimental: (§1) Broth dilution technique was employed to determine the IC50 values of all the synthesized 1,2,3 triazole derivatives (3a-c) against C. albicans ATCC 90028, C. glabrata ATCC 90030, C. tropicalis ATCC 750 and four clinical isolates of C. albicans namely D27, D31, D39 (FLC-sensitive) and D15.9 (FLC-resistant). The strains were maintained on yeast extract:peptone:dextrose ([…]) nutrient agar (2.5%) slants at 4°C. The test compounds were dissolved in DMSO with less than 4% concentration of it in the final test volume. Different concentrations (1000… 7.8 μg/mL) of test compounds in Sabouraud dextrose (SD) broth medium were dispensed into the wells, then inoculated with the test organism with approx. 2.5 × 10^3 cells/mL and incubated at 37°C for 24 h. After incubation period, the optical density was measured at 600 nm by using Thermo Scientific Multiskan Go plate reader. […] All the experiments were done in triplicate at separate times.

C. glabrata ATCC 90030 = assay: Broth dilution IC50 determination; type: cell-based; conditions: Nakaseomyces glabratus, ATCC90030, SD broth, 37°C, 24 h, OD 600 nm, read-out: Anti-Candida Activity (IC50± S.D.) C. glabrata ATCC90030
Experimental: as §1

C. albicans ATCC 90028 = assay: Broth dilution IC50 determination; type: cell-based; conditions: Candida albicans, ATCC90028, SD broth, 37°C, 24 h, OD 600 nm, read-out: Anti-Candida Activity (IC50± S.D.) C. albicans ATCC90028
Experimental: as §1

C. tropicalis ATCC 750 = assay: Broth dilution IC50 determination; type: cell-based; conditions: Candida tropicalis, ATCC750, SD broth, 37°C, 24 h, OD 600 nm, read-out: Anti-Candida Activity (IC50± S.D.) C. tropicalis ATCC750
Experimental: as §1

[2] = tested on: C. albicans D31 (FLC-sensitive clinical isolate); assay: Broth dilution IC50 determination; type: cell-based; conditions: Candida albicans, 24 h; read-out: Anti-Candida Activity (IC50± S.D.) C. albicans D31
Experimental: as §1

[3] = tested on: C. albicans D27 (FLC-sensitive clinical isolate); assay: Broth dilution IC50 determination; type: cell-based; conditions: Candida albicans, 24 h; read-out: Anti-Candida Activity (IC50± S.D.) C. albicans D27
Experimental: as §1

[4] = tested on: C. albicans D15.9 (FLC-resistant clinical isolate); assay: Broth dilution IC50 / MIC determination; type: cell-based; conditions: Candida albicans; for IC50: 24 h, read-out: Anti-Candida Activity (IC50± S.D.) C. albicans D15.9
Experimental: as §1

[5] = Cell proliferation assay (cytotoxicity); type: cell-based; conditions: monkey, Vero cells (monkey kidney fibroblasts), positive control
Experimental: The in vitro cytotoxicity of compounds 3a and 3b to mammalian cells was also determined. The assay was performed in 96-well tissue culture-treated plates as described earlier. Vero cells (monkey kidney fibroblasts) were seeded to the wells of 96-well plate at a density of 25,000 cells/well and incubated for 24 h. Samples at different concentrations were added and plates were again incubated for 48 h. The number of viable cells was determined by Neutral Red assay. IC50 values were obtained from dose response curves. Doxorubicin was used as a positive control for cytotoxicity.

ergosterol biosynthesis [6] = assay: Ergosterol estimation assay; conditions: 40 μg/mL of FLC, 16 h
Hemolytic assay = type: cell-based; conditions: human, 37°C, read-out: Hemolysis of hRBCs
Experimental: Human blood from a healthy individual was collected in tubes containing EDTA as anti-coagulant. The erythrocytes were harvested by centrifugation for 10 min at 2000 rpm and 20°C, washed three times in PBS. To the pellet, PBS was added to yield a 10% (v/v) erythrocytes/PBS suspension. The 10% suspension was then diluted 1:10 in PBS. From each suspension, 100 μL was added in triplicate to 100 μL of a different dilution series of test compounds in the same buffer in micro centrifuge tubes. […] The tubes were incubated for 1 h at 37°C and then centrifuged for 10 min at 2000 rpm and 20°C. From the supernatant, 150 μL was transferred to a flat-bottomed microtiter plate (Tarson), and the absorbance was measured spectrophotometrically at 450 nm. The hemolysis percentage was calculated by following equation: %Hemolysis=[(A450oftestcompoundtreatedsample−A450ofbuffertreatedsample)÷(A450of1%TritonX−100treatedsample−A450ofbuffertreatedsample)]×100

[7] = tested on: C. albicans ATCC 90028, C. albicans D27 (FLC-susceptible) and C. albicans D15.9 (FLC-resistant); assay: Time kill curve study, three strains; type: cell-based; conditions: 40 μg/mL; C. albicans standard and FLC-resistant
Experimental: Time-kill curves were used for testing the fungicidal or fungistatic nature of the lead inhibitors 3a and 3b. The experimental procedure was performed according to the method reported by Wang et al.. C. albicans ATCC 90028, C. albicans D27 (FLC-susceptible) and C. albicans D15.9 (FLC-resistant) strains were used as test organisms. Fluconazole was used as a positive control. Freshly prepared sterile YEPD medium was inoculated by fresh culture (approx. 2×10^3 cells) of test organisms in different conical flasks. The cells were exposed to the test compounds at 2MIC, MIC and MIC/2 values, separately. All the conical flasks having different sets of test compounds and concentrations were incubated at 37°C and 160 rpm. At predetermined time points (0, 4, 12, 24, and 48 h after incubation with agitation at 37°C), a 100-μL aliquot was removed from every solution and appropriately diluted in sterile water. A 100-μl aliquot from each dilution was spread over the YEPD agar plate. Colony counts were determined after incubation at 37°C for 24 h. All the time-kill curve experiments were conducted in duplicate and mean colony count data (log10 CFU/mL) were plotted as a function of time for each strain.

C. albicans = assay: Disk diffusion assay, appearance of zones (strains not distinguished); type: cell-based
Experimental: (§2) Disk diffusion assay was performed using C. albicans ATCC 90028 (standard), the two clinical isolates, C. albicans D27 (FLC-susceptible), and C. albicans D15.9 (FLC-resistant) for the lead inhibitors 3a and 3b. The C. albicans cells were inoculated into liquid SD medium and grown over night at 37°C. The cells were then centrifuged at 3000 rpm for 5 min, washed three times with PBS and then suspended in PBS again. Approximately, 10^5 cells/mL were inoculated into molten SD agar medium at 42°C and poured into 100-mm-diameter petriplates. Sterilized 4 mm disks of Whatman paper were placed on solid agar and 1, 2, and 4 μL of 3a and 2, 4, and 8 μL of 3b from the stock solution of 10 mg/mL were spotted on the disk. […] The diameter of zone of inhibition (ZOI) was recorded in millimetres after 48 h and was compared with that of control. This experiment was repeated thrice and values were shown in terms of mean ±standard error of mean.

[8] = tested on: C. albicans ATCC 90028 (Standard); assay: Growth assay (growth curve); type: cell-based; conditions: 40 μg/mL of FLC
Experimental: (§3) The C. albicans cells were freshly revived by subculture on the SD agar plate. A loopful of inoculum was introduced into the SD broth and cells were grown for 16 h at 37°C before use. Approximately 2×10^3 cells/mL were then inoculated into the freshly prepared 50 mL sterile SD medium. […] At predetermined time periods (0, 2, 4, 6, 8, 10, 12, 14, 16, 18, 20 22, and 24 after incubation with agitation at 37°C), 1 mL aliquot of each sample was removed from the conical flask and growth was measured tubidometrically at 600 nm using Thermo Multiskan spectrophotometer. Optical density was recorded for each concentration against time (h).

[9] = tested on: C. albicans D15.9 (FLC-resistant); assay: Growth assay (growth curve); type: cell-based; conditions: 40 μg/mL of FLC
Experimental: as §3

[10] = tested on: C. albicans D27 (FLC-susceptible); assay: Growth assay (growth curve); type: cell-based; conditions: 40 μg/mL of FLC
Experimental: as §3

[11] = tested on: C. albicans ATCC 90028 (Standard); assay: Disk diffusion assay; type: cell-based; conditions: 20 μg per disk, 48 h
Experimental: as §2

[12] = tested on: C. albicans D15.9 (FLC-resistant); assay: Disk diffusion assay; type: cell-based; conditions: 48 h
Experimental: as §2

[13] = tested on: C. albicans D27 (FLC-susceptible); assay: Disk diffusion assay; type: cell-based; conditions: Candida albicans; 20 μg per disk, 48 h; read-out: Zone of Inhibition
Experimental: as §2

ergosterol biosynthesis [14] = assay: Ergosterol estimation assay; conditions: 40 μg/mL of FLC, 16 h; remark: listed apart in the source
[15] = biological target: T1, plasma membrane H+ ATPase (Candida albicans, UniProt P28877); assay: cell-based; set-up: species or system C. albicans D15.9 (FLC-resistant)
T1 construct: endogenous in cells; host or cells: C. albicans ATCC 90028; clinical isolates C. albicans D27 (FLC-susceptible) and D15.9 (FLC-resistant); mid-log phase whole cells
T1 sequence (P28877 whole entry): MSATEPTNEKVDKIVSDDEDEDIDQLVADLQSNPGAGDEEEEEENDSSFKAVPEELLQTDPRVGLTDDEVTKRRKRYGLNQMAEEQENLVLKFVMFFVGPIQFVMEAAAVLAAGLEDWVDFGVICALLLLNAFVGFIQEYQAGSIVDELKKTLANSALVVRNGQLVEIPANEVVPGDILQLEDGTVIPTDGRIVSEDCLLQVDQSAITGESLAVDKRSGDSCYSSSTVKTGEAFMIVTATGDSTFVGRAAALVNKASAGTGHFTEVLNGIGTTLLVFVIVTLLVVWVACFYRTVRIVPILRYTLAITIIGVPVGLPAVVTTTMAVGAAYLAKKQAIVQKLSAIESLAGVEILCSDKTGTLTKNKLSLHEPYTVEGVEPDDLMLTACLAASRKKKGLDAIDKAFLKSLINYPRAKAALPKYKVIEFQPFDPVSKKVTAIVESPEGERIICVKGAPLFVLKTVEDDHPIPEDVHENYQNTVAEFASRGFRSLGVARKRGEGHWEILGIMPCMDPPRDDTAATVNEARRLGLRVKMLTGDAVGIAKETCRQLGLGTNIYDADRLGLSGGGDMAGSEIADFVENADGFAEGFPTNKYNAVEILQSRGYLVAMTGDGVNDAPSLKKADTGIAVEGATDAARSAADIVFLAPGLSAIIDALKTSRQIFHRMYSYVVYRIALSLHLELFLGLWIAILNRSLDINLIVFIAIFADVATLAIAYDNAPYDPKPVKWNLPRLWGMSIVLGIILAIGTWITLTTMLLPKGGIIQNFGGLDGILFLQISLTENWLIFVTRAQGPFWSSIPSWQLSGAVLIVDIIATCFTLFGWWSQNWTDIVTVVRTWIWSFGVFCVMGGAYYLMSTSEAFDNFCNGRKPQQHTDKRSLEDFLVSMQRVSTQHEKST
Experimental: (§4) The proton pumping activity of C. albicans was determined by monitoring acidification of external medium by measuring pH as describe earlier. In brief, the mid-log phase cells were harvested from SD medium by centrifugation at 3000 rpm for 15 min which is followed by three washings with phosphate buffer saline (PBS). A solution containing 0.1 M KCl and 0.1 mM CaCl2 in distilled water was prepared. Compounds 3a and 3b at the concentrations of 50 and 100 μg/mL were separately added in this solution. […] Initial pH was adjusted to 7.0 using 0.01 M HCl/NaOH. Approximately 0.2 g of cells were suspended in each set of solution. Suspension was kept in a double-jacketed glass container with constant stirring. Again, the pH of suspension was maintained as 7.0 for 1 min by using 0.01 N NaOH. The rate of H^+ extrusion was then monitored and calculated from the volume of 0.01 N NaOH consumed per min per mg weight of cells. Glucose has been reported as the stimulator of proton extrusion pump. Therefore above experiment was also repeated in the presence of 5 mM of glucose.

[16] = biological target: T1, plasma membrane H+ ATPase; assay: Proton extrusion measurement (H+ efflux); type: cell-based, C. albicans ATCC 90028; conditions: glucose 5mM alone
Experimental: as §4

[17] = biological target: T1, plasma membrane H+ ATPase; assay: Proton extrusion measurement (H+ efflux); type: cell-based, C. albicans D27 (FLC-susceptible)
Experimental: as §4

Compound: c1ccc(Cn2cc(COc3cccc4ccccc34)nn2)cc1 [Compound 3c, 1-Benzyl-4-((naphthalen-1-yloxy)methyl)-1H-1,2,3-triazole]
- IC50 [1]: 62.2 ± 1.07 µg/mL (≈ 197 µM)
- IC50 (C. glabrata ATCC 90030): 107 ± 1.41 µg/mL (≈ 339 µM)
- IC50 (C. albicans ATCC 90028): 91.2 ± 0.76 µg/mL (≈ 289 µM)
- IC50 (C. tropicalis ATCC 750): 38.2 ± 0.83 µg/mL (≈ 121 µM)
- IC50 [2]: 119 ± 2.94 µg/mL (≈ 377 µM)
- IC50 [3]: 43.7 ± 1.18 µg/mL (≈ 139 µM)
- IC50 [4]: 66.9 ± 1.84 µg/mL (≈ 212 µM)

Compound: COc1cccc2c1C(=O)c1c(O)c3c(c(O)c1C2=O)C[C@@](O)(C(=O)CO)C[C@@H]3O[C@H]1C[C@H](N)[C@H](O)[C@H](C)O1 [Doxorubicin]
- IC50 at 48 h [5]: > 5 µg/mL

Compound: OC(Cn1cncn1)(Cn1cncn1)c1ccc(F)cc1F [FLC, Fluconazole, reference compound]
- Decrease in ergosterol content (ergosterol biosynthesis [6]): 96%
- hemolysis at 1 h, 500 μg/mL (Hemolytic assay): 68.6%
- CFU/mL, treated versus untreated cells [7]: no significant difference in CFU/mL
- Appearance of zone around disks (clear = fungicidal nature, turbid = fungistatic nature) (C. albicans): turbid
- Time by which lag phase was over [8]: 16 h
- Time by which lag phase was over [9]: 16 h
- Time by which lag phase was over [10]: 20 h
- IC50 [1]: < 7.5 µg/mL
- IC50 (C. glabrata ATCC 90030): 7.81 ± 0.88 µg/mL (≈ 25.5 µM)
- IC50 (C. albicans ATCC 90028): 15.6 ± 0.65 µg/mL (≈ 51 µM)
- IC50 (C. tropicalis ATCC 750): 8.55 ± 1.59 µg/mL (≈ 27.9 µM)
- IC50 [2]: < 7.5 µg/mL
- IC50 [3]: < 7.5 µg/mL
- Zone of Inhibition [11]: 26± 1.02 mm
- zone of inhibition at 20 µg/disc ([11]; Candida albicans, ATCC90028): 26 mm
- Zone of Inhibition ([12]; 20 μg per disk): 24± 0.74 mm
- zone of inhibition at 20 µg/disc ([12]; Candida albicans): 24 mm
- zone of inhibition at 20 µg/disc [13]: 27 ± 1.35 mm
- Decrease in ergosterol content (ergosterol biosynthesis [14]): 100%
- MIC [4]: > 1 µg/mL
- IC50 [4]: > 1000 µg/mL

Compound: OC[C@H]1OC(O)[C@H](O)[C@@H](O)[C@@H]1O (stereo partly shown) [Glucose, reference compound]
- Increase of the rate of H+ extrusion ([15]; 5 mM of glucose): 36%
- Range of relative H+ efflux rate ([15]; glucose 5mM alone): 43.33 ± 2.1 ×10^−6 mol min^−1 mg cells^−1
- Range of relative H+ efflux rate [16]: 54.95 ± 2.7 ×10^−6 mol min^−1 mg cells^−1
- Increase of the rate of H+ extrusion ([17]; 5 mM of glucose): 24%
- Range of relative H+ efflux rate ([17]; glucose 5mM alone): 40.00 ± 2.0 ×10^−6 mol min^−1 mg cells^−1
